Experimental findings from ChEMBL document CHEMBL4138076, “Methyllysine binding domains: Structural insight and small molecule probe development” (Eur J Med Chem, 2017) are described below.

The structures appear in SMILES notation.

Assay [1] has as its target Histone-lysine N-methyltransferase 2A (Homo sapiens, UniProt Q03164). Description: Binding affinity to 15N-labeled GST-tagged MLL1 PHD3 finger domain (1565 to 1627 residues) (unknown origin) expressed in Escherichia coli Rosetta2 BL21(DE3) pLysS cells by NMR Spectroscopy method.
Assay [2] deals with Lysine-specific demethylase 5A (Homo sapiens, UniProt P29375). Description: Inhibition of JARID1A (unknown origin).

Sequence of Histone-lysine N-methyltransferase 2A (Q03164 1-2718 limits assumed): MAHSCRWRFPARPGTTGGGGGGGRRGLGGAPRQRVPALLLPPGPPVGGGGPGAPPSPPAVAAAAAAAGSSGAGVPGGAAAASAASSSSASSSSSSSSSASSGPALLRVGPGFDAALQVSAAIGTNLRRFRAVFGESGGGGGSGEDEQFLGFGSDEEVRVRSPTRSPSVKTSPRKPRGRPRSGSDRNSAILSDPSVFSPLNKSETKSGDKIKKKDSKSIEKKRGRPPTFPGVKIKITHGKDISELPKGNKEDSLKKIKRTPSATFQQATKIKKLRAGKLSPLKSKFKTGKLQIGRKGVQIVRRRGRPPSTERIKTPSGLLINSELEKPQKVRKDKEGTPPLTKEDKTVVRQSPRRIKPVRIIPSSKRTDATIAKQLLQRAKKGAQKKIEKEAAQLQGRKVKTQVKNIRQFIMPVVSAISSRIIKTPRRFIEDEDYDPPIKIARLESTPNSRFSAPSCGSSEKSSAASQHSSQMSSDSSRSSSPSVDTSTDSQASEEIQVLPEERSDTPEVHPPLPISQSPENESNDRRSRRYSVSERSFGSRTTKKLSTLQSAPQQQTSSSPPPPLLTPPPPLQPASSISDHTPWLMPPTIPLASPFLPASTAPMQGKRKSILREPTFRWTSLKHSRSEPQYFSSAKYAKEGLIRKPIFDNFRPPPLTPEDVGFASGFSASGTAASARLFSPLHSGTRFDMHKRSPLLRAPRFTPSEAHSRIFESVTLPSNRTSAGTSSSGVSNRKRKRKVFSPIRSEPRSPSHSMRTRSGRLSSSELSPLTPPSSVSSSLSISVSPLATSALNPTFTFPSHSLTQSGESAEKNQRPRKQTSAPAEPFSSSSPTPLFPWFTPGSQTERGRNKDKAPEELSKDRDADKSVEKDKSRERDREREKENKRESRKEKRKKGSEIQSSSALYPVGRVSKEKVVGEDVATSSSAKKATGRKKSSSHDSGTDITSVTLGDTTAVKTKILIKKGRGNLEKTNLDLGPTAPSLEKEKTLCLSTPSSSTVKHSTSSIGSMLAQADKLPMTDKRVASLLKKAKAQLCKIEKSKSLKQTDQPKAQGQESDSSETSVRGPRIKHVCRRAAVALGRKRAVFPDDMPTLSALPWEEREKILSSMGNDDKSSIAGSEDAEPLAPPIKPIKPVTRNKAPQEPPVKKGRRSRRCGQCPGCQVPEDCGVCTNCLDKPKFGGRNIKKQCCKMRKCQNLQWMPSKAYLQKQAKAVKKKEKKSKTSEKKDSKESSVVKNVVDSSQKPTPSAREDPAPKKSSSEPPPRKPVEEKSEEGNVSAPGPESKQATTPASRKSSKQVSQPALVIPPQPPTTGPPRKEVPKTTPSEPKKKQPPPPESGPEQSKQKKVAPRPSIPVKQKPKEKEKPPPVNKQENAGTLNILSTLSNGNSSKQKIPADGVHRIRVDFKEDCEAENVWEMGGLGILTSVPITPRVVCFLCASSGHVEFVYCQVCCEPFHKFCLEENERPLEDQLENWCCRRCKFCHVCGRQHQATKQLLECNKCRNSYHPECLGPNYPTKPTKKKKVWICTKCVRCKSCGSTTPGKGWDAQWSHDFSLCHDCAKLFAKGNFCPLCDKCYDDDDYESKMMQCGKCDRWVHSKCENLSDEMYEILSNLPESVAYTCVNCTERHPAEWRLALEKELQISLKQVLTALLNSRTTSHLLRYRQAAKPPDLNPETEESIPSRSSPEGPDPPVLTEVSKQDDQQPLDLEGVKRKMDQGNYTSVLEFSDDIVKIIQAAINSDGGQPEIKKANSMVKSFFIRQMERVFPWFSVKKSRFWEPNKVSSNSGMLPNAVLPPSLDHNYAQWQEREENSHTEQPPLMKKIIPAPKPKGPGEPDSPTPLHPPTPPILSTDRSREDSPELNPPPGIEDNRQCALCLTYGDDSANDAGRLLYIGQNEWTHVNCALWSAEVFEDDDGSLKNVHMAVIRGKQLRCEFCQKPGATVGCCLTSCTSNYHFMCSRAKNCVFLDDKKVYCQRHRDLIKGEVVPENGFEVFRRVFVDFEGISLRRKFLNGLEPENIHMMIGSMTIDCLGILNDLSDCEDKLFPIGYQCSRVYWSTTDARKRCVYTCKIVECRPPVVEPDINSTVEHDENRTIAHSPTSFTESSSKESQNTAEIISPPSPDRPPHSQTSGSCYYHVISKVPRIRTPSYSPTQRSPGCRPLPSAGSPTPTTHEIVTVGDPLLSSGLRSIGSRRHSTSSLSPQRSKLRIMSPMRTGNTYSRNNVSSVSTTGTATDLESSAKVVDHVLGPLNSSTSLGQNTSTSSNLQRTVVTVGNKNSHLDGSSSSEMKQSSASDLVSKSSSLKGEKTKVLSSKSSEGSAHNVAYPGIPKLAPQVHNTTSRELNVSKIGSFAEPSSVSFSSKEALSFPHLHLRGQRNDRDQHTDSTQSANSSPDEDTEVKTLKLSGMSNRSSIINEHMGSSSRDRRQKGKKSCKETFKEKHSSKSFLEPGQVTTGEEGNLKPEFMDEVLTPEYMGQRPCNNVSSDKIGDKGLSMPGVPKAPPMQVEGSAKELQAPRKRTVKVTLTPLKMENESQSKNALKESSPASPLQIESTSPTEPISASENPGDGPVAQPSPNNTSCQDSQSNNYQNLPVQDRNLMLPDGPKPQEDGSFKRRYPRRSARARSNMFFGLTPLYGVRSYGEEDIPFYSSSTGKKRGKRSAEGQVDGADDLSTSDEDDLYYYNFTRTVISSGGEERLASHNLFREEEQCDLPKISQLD
Sequence of Histone-lysine N-methyltransferase 2A (Q03164 2719-3969 limits assumed): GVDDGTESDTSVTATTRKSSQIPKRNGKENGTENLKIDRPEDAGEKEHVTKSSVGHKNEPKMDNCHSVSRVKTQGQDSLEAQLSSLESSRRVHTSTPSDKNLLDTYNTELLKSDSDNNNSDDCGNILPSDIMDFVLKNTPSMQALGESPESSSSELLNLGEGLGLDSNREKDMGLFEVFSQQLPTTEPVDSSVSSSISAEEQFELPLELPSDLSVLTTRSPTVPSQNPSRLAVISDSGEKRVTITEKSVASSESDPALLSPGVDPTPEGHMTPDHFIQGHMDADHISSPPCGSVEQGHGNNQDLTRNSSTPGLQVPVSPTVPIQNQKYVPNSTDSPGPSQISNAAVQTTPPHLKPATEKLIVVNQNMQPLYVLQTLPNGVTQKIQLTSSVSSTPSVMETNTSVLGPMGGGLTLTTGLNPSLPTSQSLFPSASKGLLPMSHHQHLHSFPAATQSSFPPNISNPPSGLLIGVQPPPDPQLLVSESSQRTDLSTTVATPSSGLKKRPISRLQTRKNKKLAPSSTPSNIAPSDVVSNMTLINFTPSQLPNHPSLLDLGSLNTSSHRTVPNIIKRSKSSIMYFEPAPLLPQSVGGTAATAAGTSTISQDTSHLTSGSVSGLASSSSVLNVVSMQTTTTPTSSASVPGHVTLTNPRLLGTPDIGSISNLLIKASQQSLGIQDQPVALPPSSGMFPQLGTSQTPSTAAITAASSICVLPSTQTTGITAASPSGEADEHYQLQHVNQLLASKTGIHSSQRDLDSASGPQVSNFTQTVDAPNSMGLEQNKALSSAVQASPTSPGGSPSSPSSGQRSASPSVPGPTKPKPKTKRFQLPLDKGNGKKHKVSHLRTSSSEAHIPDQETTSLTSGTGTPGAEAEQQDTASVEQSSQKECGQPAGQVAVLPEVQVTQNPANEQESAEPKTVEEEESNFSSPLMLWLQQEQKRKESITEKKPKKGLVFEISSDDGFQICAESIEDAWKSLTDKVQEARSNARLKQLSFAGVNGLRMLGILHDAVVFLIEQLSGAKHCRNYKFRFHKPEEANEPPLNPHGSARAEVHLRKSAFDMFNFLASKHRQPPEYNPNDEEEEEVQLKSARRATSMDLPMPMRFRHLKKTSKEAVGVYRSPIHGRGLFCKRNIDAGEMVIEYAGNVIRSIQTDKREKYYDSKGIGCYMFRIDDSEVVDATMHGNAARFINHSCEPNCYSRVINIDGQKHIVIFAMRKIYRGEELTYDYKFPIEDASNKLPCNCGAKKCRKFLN

As to `C[C@H](NC(=O)[C@H](CCCCN)NC(=O)CNC(=O)CNC(=O)[C@@H](NC(=O)[C@H](CO)NC(=O)[C@H](CCCCN)NC(=O)[C@H](CCCNC(=N)N)NC(=O)[C@H](C)NC(=O)[C@@H](NC(=O)[C@H](CCC(N)=O)NC(=O)[C@H](CCCC[N+](C)(C)C)NC(=O)[C@@H](NC(=O)[C@H](CCCNC(=N)N)NC(=O)[C@H](C)NC(=S)Nc1ccc(C2=C3C=CC(O)=CC3Oc3cc(O)ccc32)c(C(=O)O)c1)[C@@H](C)O)[C@@H](C)O)[C@@H](C)O)C(=O)O` (some centres not stated), the Kd in assay [1] was 20 µM; in assay [2] it was 0.8 to 0.9 µM.
